Data as given in the NIST ThermoML archive (doi:10.1021/acs.jced.8b00370).

Test: mn = molality of the nth substance listed, in mol/kg
Details: 100 kPa, Liquid; for speed of sound: Frequency=3 MHz, Single path-length method; for mass density: Vibrating tube method

OC[C@H]1O[C@@](CO)(O[C@H]2O[C@H](CO)[C@@H](O)[C@H](O)[C@H]2O)[C@@H](O)[C@@H]1O [D-sucrose] + O
Details | mass density, 288.15 K [kg/m3] | mass density, 298.15 K [kg/m3] | mass density, 308.15 K [kg/m3] | mass density, 318.15 K [kg/m3] | speed of sound, 288.15 K [m/s] | speed of sound, 298.15 K [m/s] | speed of sound, 308.15 K [m/s] | speed of sound, 318.15 K [m/s]
m1 = 0.1002 | 1012.01 | 1009.81 | 1006.68 | 1002.77 | 1476.3 | 1506 | 1528.2 | 1544
m1 = 0.2007 | 1024.37 | 1022.04 | 1018.8 | 1014.82 | 1486.2 | 1515 | 1536.5 | 1551.6
m1 = 0.3011 | 1036.19 | 1033.73 | 1030.39 | 1026.34 | 1496 | 1524 | 1544.7 | 1559.1
m1 = 0.4034 | 1047.72 | 1045.13 | 1041.69 | 1037.58 | 1506 | 1533.2 | 1553.1 | 1566.7
m1 = 0.4996 | 1058.12 | 1055.43 | 1051.89 | 1047.73 | 1515.3 | 1541.7 | 1561 | 1574.3
m1 = 0.6018 | 1068.73 | 1065.92 | 1062.29 | 1058.07 | 1525.2 | 1550.6 | 1569.3 | 1581.7
m1 = 0.7022 | 1078.71 | 1075.81 | 1072.09 | 1067.82 | 1534.9 | 1559.3 | 1577.2 | 1589.3
m1 = 0.7978 | 1087.87 | 1084.86 | 1081.07 | 1076.72 | 1543.9 | 1567.4 | 1584.8 | 1596.1
m1 = 0.8955 | 1096.86 | 1093.77 | 1089.9 | 1085.49 | 1552.9 | 1575.6 | 1592.3 | 1603.2
m1 = 0.9969 | 1105.83 | 1102.65 | 1098.71 | 1094.23 | 1562.2 | 1583.8 | 1600.1 | 1611
